Consider three compounds from patent publication US5493024A, “3,4,N-trisubstituted-4,5-dihydro-1H-pyrazole-1-carboxamides and their use as insectioides” (DowElanco, priority 1993, dated 1996).

Assay [1] deals with beet armyworm. Kind of assay: Effect on beet armyworm, contact test (treated Teflon discs). Type of assay: in vivo, S. exigua (beet armyworm). The note with it: Spodoptera exigua, 144 h; second-instar larvae, sprayed Teflon discs 24 hours, then 5 more days on untreated leaf, 25° C; read-out: BEET ARMYWORM Contact Test LC50, ppm. The protocol: (§1) Effect on Tobacco Budworm and Beet Armyworm by Contact.
(§2) Stock solutions of the compounds to be tested having a known concentration were prepared by dissolving weighed amounts in a 90:10 mixture of high-purity acetone and ethanol and these solutions were diluted with distilled water (containing 0.05 percent by weight Tween 20™ surfactant) to obtain the spray solutions of known concentration employed. Teflon™ discs 5 cm in diameter were placed in plastic petri dishes of slightly larger diameter and these dishes were sprayed by means of a track sprayer applying 0.104 mL of spray solution per cup. The Teflon™ discs were allowed to dry, a single second-instar H. virescens (tobacco budworm) or S. exigua (beet armyworm) larva was placed on each Teflon™ disc, and each disc was capped with a plastic lid. Ten Teflon™ discs were prepared for each application rate and five application rates were usually run. Treated discs were stored for 24 hours at 25° C. and then the Teflon™ disc was removed and replaced with an untreated cotton leaf disc. After 5 more days of storage at 25 ° C. the dishes were graded for mortality. Untreated controls and positive controls (cypermethrin) were run simultaneously. The amount of test chemical required to kill half of the larvae (LD50) was calculated.

In assay [2] the test system is beet armyworm. Kind of assay: Effect on beet armyworm, contact and ingestion test (treated cotton leaf discs). Type of assay: in vivo, S. exigua (beet armyworm). To be noted: Spodoptera exigua, foliar, 120 h; second-instar larvae, sprayed cotton leaf discs, 5 days at 25° C; read-out: BEET ARMYWORM Contact and Ingestion Test LC50, ppm. As to the method: (§3) Effect on Tobacco Budworm and Beet Armyworm by Leaf Ingestion and/or Contact.
(§4) Stock solutions of the compounds to be tested having a known concentration were prepared by dissolving weighed amounts in a 90:10 mixture of high-purity acetone and ethanol and these solutions were diluted with distilled water (containing 0.05 percent by weight Tween 20™ surfactant) to obtain the spray solutions of known concentration employed. Greenhouse-grown cotton leaves of uniform age were cut into 2.5 cm diameter discs and one disc was placed in the bottom of each of a number of 30 mL plastic cups. The cups were then sprayed by means of a track sprayer applying 0.055 mL of spray solution per cup. The leaf discs were allowed to dry and then a single second-instar H. virescens (tobacco budworm) or S. exigua (beet armyworm) larva was added to each cup and each cup was capped with a perforated plastic lid. Ten cups were prepared for each insect species and each application rate and five applications rates were usually run. Treated cups were stored for 5 days at 25° C. and were then graded for mortality. Untreated controls and positive controls (cypermethrin) were run simultaneously. The amount of test chemical required to kill half of the larvae (LD50) was calculated.

Assay [3] has as its system tobacco budworm. The experiment in a line: Effect on tobacco budworm, contact and ingestion test (treated cotton leaf discs). Type of assay: in vivo, H. virescens (tobacco budworm). The note with it: Heliothis virescens, foliar, 120 h; second-instar larvae, sprayed cotton leaf discs, 5 days at 25° C; read-out: TOBACCO BUDWORM Contact and Ingestion Test LC50, ppm. As to the method:
as §3, §4

For assay [4], the system named is Blattella germanica nymphs. Kind of assay: Effect on cockroaches, contact test (treated vials). Type of assay: in vivo. The note with it: 168 h, 50 ppm solution, after 7 days, 27° C, read-out: percent control, contact test. As to the method: (§5) Two hundred ppm stock solutions of the compounds to be tested were prepared by dissolving 2.4 milligrams (mg) of each test compound in 12 mL of acetone; four lower concentration solutions were prepared by serial dilution using 3 mL of solution. A 0.5 mL portion of each test solution was pipetted onto 0.2 g of yellow corn meal placed in a small test tube cap (Fisher 02-706-33) and the mixture was placed in a fume hood overnight to allow the solvent to evaporate. […] Each cap was then placed in a 9 cm (centimeter) diameter Petri plate along with a 2 dram vial containing a cotton wick and water. A 0.5 mL portion of each test solution was also pipetted into a 20 mL borosilicate glass scintillation vial. The vials were placed on a roller mixer and the acetone was allowed to evaporate while the vials rolled. […] Five late third or early fourth instar Blattella germanica nymphs weighing 0.01-0.04 g were placed in each vial and each Petri plate and covers were applied loosely to allow entry of air. Each Petri plate and vial was held at 27° C., the Petri plates for 21 days and the vials for 7 days. The percent of mortality was read periodically and at the end of the test.

Assay [5] relates to Blattella germanica nymphs. Kind of assay: Effect on cockroaches, ingestion test (treated corn meal). Type of assay: in vivo. To be noted: 504 h, after 21 days, 27° C, read-out: percent control, ingestion test; for mortality at 12.5 ppm: 12.5 ppm solution; for mortality at 50 ppm: 50 ppm solution; for mortality at 200 ppm: 200 ppm solution. The protocol:
as §5

Assay [6] deals with tobacco budworm. Kind of assay: Effect on tobacco budworm, contact test (treated Teflon discs). Type of assay: in vivo, H. virescens (tobacco budworm). To be noted: Heliothis virescens, 144 h; second-instar larvae, sprayed Teflon discs 24 hours, then 5 more days on untreated leaf, 25° C; read-out: TOBACCO BUDWORM Contact Test LC50, ppm. The protocol:
as §1, §2

≈ marks a conversion by molar mass, not a printed value.

A word on the LC50: it is the concentration that kills 50% of the test population. As to `O=C(Nc1ccc(C(F)(F)F)cc1)N1CC(c2ccc(C(F)(F)F)cn2)C(c2ccc(F)cc2)=N1` (centres unmarked) [G, 4,5-Dihydro-3-(4-fluorophenyl)-N-(4-trifluoromethylphenyl)-4-(5-trifluoromethyl-2-pyridinyl)-1H-pyrazole-1-carboxamide], the LC50 was determined as 5 µg/mL (≈ 10.1 µM) in assay [1], 1 µg/mL (≈ 2.01 µM) in assay [2], 1.1 µg/mL (≈ 2.22 µM) in assay [3] and 8.7 µg/mL (≈ 17.5 µM) in assay [6]. Besides, the results for the mortality at 50 ppm in assay [4] and in assay [5] were 100% and about 100%, respectively. For the same compound, the mortality at 12.5 ppm in assay [5] is about 100%. The mortality at 200 ppm in assay [5] came to 100%.

Take `O=C(Nc1ccc(OC(F)(F)F)cc1)N1CC(c2ncc(Cl)cn2)C(c2ccc(F)cc2)=N1` (centres unmarked) [T, 4-(5-Chloro-2-pyrimidinyl)-4,5-dihydro-3-(4-fluorophenyl)-N-(4-trifluoromethoxyphenyl)-1H-pyrazole-1-carboxamide]: the LC50 was 2.2 µg/mL (≈ 4.59 µM) in assay [1], 1.4 µg/mL (≈ 2.92 µM) in assay [2], 1.3 µg/mL (≈ 2.71 µM) in assay [3] and 7.5 µg/mL (≈ 15.6 µM) in assay [6]. The figures for the mortality at 50 ppm in assay [4] and in assay [5] were 100% and about 100%, respectively. The mortality at 12.5 ppm in assay [5] is about 100%. For the same compound, the mortality at 200 ppm in assay [5] turned out to be 100%.

On to `O=C(Nc1ccc(OC(F)(F)F)cc1)N1CC(c2ccc(C(F)(F)F)cn2)C(c2ccc(F)cc2)=N1` (centres unmarked) [H, 4,5-Dihydro-3-(4-fluorophenyl)-N-(4-trifluoromethoxyphenyl)-4-(5-trifluoromethyl-2-pyridinyl)-1H-pyrazole-1-carboxamide], for which the LC50 was under 5 µg/mL in assay [1], 1.3 µg/mL (≈ 2.54 µM) in assay [2], 2.3 µg/mL (≈ 4.49 µM) in assay [3] and 23.3 µg/mL (≈ 45.5 µM) in assay [6].
